Test results as given in ChEMBL document CHEMBL5137009, “On the Utility of Chemical Strategies to Improve Peptide Gut Stability” (J Med Chem, 2022).

Columns and labels:
[1] = Stability of the compound in simulated gastric fluid at pH 1.2 assessed as half life measured up to 24 hrs by RP-HPLC-UV analysis; type: ADME
[2] = Stability of the compound in simulated intestinal fluid at pH 6.8 assessed as half life measured up to 24 hrs by RP-HPLC-UV analysis; type: ADME

Compound	half-life [1] [h]	half-life [2] [h]
CC[C@H](C)[C@@H]1NC(=O)[C@H](CCC(=O)O)NC(=O)[C@@H]2CCCN2C(=O)[C@H](Cc2cnc[nH]2)NC(=O)[C@H](CC(=O)O)NC(=O)[C@H](Cc2ccc(O)cc2)NC(=O)[C@H](CC(N)=O)NC(=O)[C@@H]2CSSC[C@H](NC(=O)CN)C(=O)N[C@@H](CSSC[C@@H](C(N)=O)NC1=O)C(=O)N[C@@H](CO)C(=O)N[C@@H](CC(=O)O)C(=O)N1CCC[C@H]1C(=O)N[C@@H](CCCNC(=N)N)C(=O)N2	> 24	2.4
CC(C)C[C@@H]1NC(=O)[C@H](CCC(=O)O)NC(=O)[C@@H](NC(=O)[C@H](CCC(=O)O)NC(=O)[C@H](CC(=O)O)NC(=O)[C@H](N)CC(N)=O)CSSC[C@@H]2NC(=O)[C@H](C)NC(=O)[C@H](C(C)C)NC(=O)[C@H](CC(N)=O)NC(=O)[C@H](C(C)C)NC(=O)[C@H](CSSC[C@@H](C(=O)N[C@H](CC(C)C)C(=O)O)NC(=O)CNC(=O)[C@H]([C@@H](C)O)NC2=O)NC1=O	> 24	> 24
CC[C@H](C)[C@@H]1NC(=O)[C@H](CCC(=O)O)NC(=O)[C@@H]2CCCN2C(=O)[C@H](Cc2c[nH]cn2)NC(=O)[C@H](CC(=O)O)NC(=O)[C@H](Cc2ccc(O)cc2)NC(=O)[C@H](CC(N)=O)NC(=O)[C@@H]2CSSC[C@@H]3NC(=O)CNC(=O)CNC(=O)CNC(=O)[C@H](C)NC(=O)[C@H](C)NC(=O)CNC(=O)CNC(=O)[C@@H](CSSC[C@H](NC3=O)C(=O)N[C@@H](CO)C(=O)N[C@@H](CC(=O)O)C(=O)N3CCC[C@H]3C(=O)N[C@@H](CCCNC(=N)N)C(=O)N2)NC1=O	> 24	1.5
